Assay results as given in patent publication EP2416773B1, “CHECKPOINT KINASE 1 INHIBITORS FOR POTENTIATING DNA DAMAGING AGENTS” (Array Biopharma, Inc., priority 2009, dated 2010).
Like-named read-outs stand apart in the source and are kept apart here.

What was measured:
[1] = test system: subcutaneous HT-29 xenografts; experiment: Tumor growth inhibition experiment, CPT11 and Compound 5 (Example 12); format: in vivo; conditions: for Growth Delay / Maximum % Body Weight Loss: single agent, CPT11 100 mg/kg IP Q10Dx2, Compound 5 PO BID 3 days, dose not given
Description: Female nude mice were inoculated subcutaneously with 4 X 10^6 HT-29 tumor cells in 1X PBS (100 µL). Twelve days later, mice were randomized into groups of 7 with an average tumor volume in each group of approximately 200 mm^3. […] Tumor size and animal body weight were measured over the course of the study on the days indicated with data points in Figure 13. Tumor volume was calculated using the formula: volume = (width^2 x length)/2. No mortalities occurred over the course of this study.

[2] = test system: subcutaneous HT-29 xenografts; experiment: Tumor growth inhibition experiment with tolerability, CPT11 and Compound 1, simultaneous or 24 hour delay (Example 3); format: in vivo; conditions: single agent; CPT11 100 mg/kg IP single dose; Compound 1 50 mg/kg PO BID 3 consecutive days
Description: (§1) Female nude mice were inoculated subcutaneously with 5 X 10^6 HT-29 tumor cells in 1X PBS (100 µL). Twelve days later, mice were randomized into groups of 6 with an average tumor volume in each group of approximately 250 mm^3. […] Tumor size and animal body weight were measured over the course of the study on the days indicated with data points in Figure 5. Tumor volume was calculated using the formula volume = (width^2 X length)/2.

[3] = test system: subcutaneous HT-29 xenografts; format: in vivo; conditions: single agent; CPT11 100 mg/kg IP Q10Dx2; Compound 2 25 mg/kg PO BID
Description: as §1, with “in IX” for “in 1X”, “of 8” for “of 6”, “approximately 215” for “approximately 250”, “Figure 6.” for “Figure 5.”, “the formula:” for “the formula”

[4] = Tolerability of CPT11 and Compound 2 with 12, 24 or 48 hour delay in naive mice (Example 4); format: in vivo; conditions: single agent; CPT11 100 mg/kg IP Q10Dx2; Compound 2 25 mg/kg PO BID 3 days per cycle
[5] = test system: subcutaneous HT-29 xenografts; experiment: Tumor growth inhibition experiment, CPT11 and Compound 2 (Example 11); format: in vivo, nude mice; conditions: in combination with CPT-11; Compound 2 10 or 25 mg/kg PO BID
Description: as §1, with “µL). Fourteen” for “µL). Twelve”, “of 8” for “of 6”, “approximately 260” for “approximately 250”, “Figure 12.” for “Figure 5.”, “the formula: volume=” for “the formula volume =”, “(width^2 x” for “(width^2 X”

[6] = Compound 2 exposure in HT-29 tumor bearing mice after CPT11 (Example 6); format: in vivo, nude mice; conditions: Compound 2 25 mg/kg PO, from 24 hours after CPT11 100 mg/kg; single dose vs 3 consecutive days BID; t-test > 0.05
[7] = test system: subcutaneous HT-29 xenografts; format: in vivo; conditions: single agent; gemcitabine 140 mg/kg IP Q7Dx2; Compound 2 PO BID 3 days, dose not given
Description: Female nude mice were inoculated subcutaneously with 5 X 10^6 HT-29 tumor cells in IX PBS (100 µL). Fourteen days later, mice were randomized into groups of 8 with an average tumor volume in each group of approximately 260 mm^3. Sorted animals were administered gemcitabine (140 mg/kg; IP) on a Q7Dx2 cycles schedule. Compound 2 (10 or 25mg/kg: PO, BID) administration was initiated 24 hours post gemcitabine and endured for 3 days as indicated. Tumor size and animal body weight were measured over the course of the study on the days indicated with data points in Figure 9. Tumor volume was calculated using the formula: volume = (width^2 X length)/2. No mortalities occurred over the course of this study.

phospho-cdc2 = experiment: Inhibition of CPT11 induced phosphorylation of cdc2 in HT-29 tumors, immunoblot (Example 7); format: in vivo, nude mice; conditions: extended dosing: 5, 10 or 25 mg/kg PO BID 3 consecutive days from 24 hours after CPT11 100 mg/kg IP; tumors harvested 96 hours post CPT11
Description: Female nude mice were inoculated subcutaneously with 5 X 10^6 HT-29 tumor cells in IX PBS (100 µL). Twenty nine days later, mice were randomized into groups of 3 with an average tumor volume in each group of approximately 500 mm^3. […] Compound 5 was given as a single dose at 25 mg/kg, or alternatively 5, 10, or 25 mg/kg doses were given for 3 consecutive days on BID schedules. […] Phosphorylation of cdc2 was assessed by immunoblot and normalized to total ERK expression. Results are expressed as POC.

[8] = test system: MiaPaCa2 pancreatic carcinoma xenografts; format: in vivo; conditions: for % Tumor Growth Inhibition / Growth Delay: single agent, gemcitabine 120 mg/kg IP Q7Dx3, Compound 5 given as 10 mg/kg in table
Description: female nude mice were inoculated subcutaneously with 7 X 10^6 MiaPaCa2 tumor cells in a 1:1 1X PBS and matrigel suspension (100 µL). Fifteen days later, mice were randomized into groups of 7 with an average tumor volume in each group of approximately 315 mm^3. Sorted animals were administered gemcitabine (120 mg/kg; IP) on a Q7Dx3 cycles schedule. […] Tumor size and animals body weight were measured over the course of the study on the days indicated with data points in Figure 11. Tumor volume was calculated using the formula: volume = (width^2 X length)/2. No mortalities occurred over the course of this study.

[9] = test system: subcutaneous HT-29 xenografts; format: in vivo; conditions: for Growth Delay: gemcitabine 120 mg/kg IP Q7Dx3
Description: Female nude mice were inoculated subcutaneously with 5 X 10^6 HT-29 tumor cells in IX PBS (100 µL). Fourteen days later, mice were randomized into groups of 7 with an average tumor volume in each group of approximately 200 mm^3. Sorted animals were administered gemcitabine (120 mg/kg; IP) on a Q7Dx3 cycles schedule. Compound 5 (5, 10 or 25mg/kg; PO. BID) administration was initiated 24 hours post gemcitabine and endured for 3 days as indicated. Tumor size and animal body weight were measured over the course of the study on the days indicated with data points in Figure 10. Tumor volume was calculated using the formula: volume = (width^2 X length)/2. No mortalities occurred over the course of this study.

[10] = single agent, Compound 5 10 mg/kg PO BID 3 days

Compound | Growth Delay [1] [days] | Maximum % Body Weight Loss [1] | Maximum % Body Weight Loss [2] | Growth Delay [3] [days] | % Mortality [4] [%] | Maximum % Body Weight Loss [4] | Growth Delay [7] [days] | % Tumor Growth Inhibition [8] | Growth Delay [8] [days] | Growth Delay [9, 10] [days] | further results
CCc1c2c(nc3ccc(OC(=O)N4CCC(N5CCCCC5)CC4)cc13)-c1cc3c(c(=O)n1C2)COC(=O)[C@]3(O)CC [CPT11, irinotecan, reference compound] | 16.6 | 6.3, Day 18% | 3.9, Day 13% | 16 | 0 | 3.4. Day 14% | – | – | – | – | % Mortality [2]: 0%
N[C@@H]1CCCN(c2c(Br)cnc3[nH]cc(NC(=O)c4cccnc4)c23)C1 [Compound 1, (R)-N-(4-(3-aminopiperidin-1-yl)-5-bromo-1H-pyrrolo[2,3-b]pyridin-3-yl)nicotinamide] | – | – | 3.9, Day 13% | – | – | – | – | – | – | – | –
CC(C)C(=O)Nc1c[nH]c2ncc(Br)c(N3CCC[C@@H](N)C3)c12 [Compound 2, (R)-N-(4-(3-aminopiperidin-1-yl)-5-bromo-1H-pyrrolo[2,3-b]pyridin-3-yl)isobutyramide] | – | – | – | 1.8 | 0 | 0.3, Day 17% | 4.78 | – | – | – | inhibition of tumor growth [5]: dose related inhibition of tumor growth; exposure following a single dose or administration for 3 days [6]: not statistically_different; Maximum % Body Weight Loss [3]: 7.2, Dav 3%
N[C@@H]1CCCN(c2c(Br)cnc3[nH]cc(NC(=O)C4CC4)c23)C1 [Compound 5, (R)-N-(4-(3-aminopiperidin-1-yl)-5-bromo-1H-pyrrolo[2,3-b]pyridin-3-yl)cyclopropanecarboxamide] | 7.7 | 2.5, Dav 18% | – | – | – | – | – | 25,5% | 6.1 | 5.7 | inhibition of tumor growth ([1]; in combination with CPT-11, Compound 5 5, 10 or 25 mg/kg PO BID): dose related inhibition of tumor growth; inhibition of CPT11 induced phospho-cdc2 (phospho-cdc2): dose-related inhibition; tumor growth ([8]; in combination with gemcitabine, MiaPaCa2 pancreatic carcinoma xenografts): inhibits tumor growth; inhibition of tumor growth ([9]; in combination with gemcitabine, Compound 5 5, 10 or 25 mg/kg PO BID): dose related inhibition of tumor growth; % Regression [9, 10]: 31.6%
Nc1ccn([C@@H]2O[C@H](CO)[C@@H](O)C2(F)F)c(=O)n1 [Gemcitabine, gemcitabine, reference compound] | – | – | – | – | – | – | 4.39 | 6.6% | 2.2 | 11.5 | –
